Source: publication PMC12077488 (Science signaling, 2025)
pKd: −log10 of the molar value.

Key:
[1] = test system: endogenous adenosine receptors (A1 purinergic receptors); test: Gαi bONE-GO kinetic BRET in primary mouse cortical astroglial cells; type: cell-based; conditions: lentiviral Gαi bONE-GO, N=3
GABABR = conditions: HEK293T cells expressing GABABR, GINIP-Nluc and YFP-CAAX
DOR = conditions: cited from earlier work
Gαi = Gαi (UniProt P08753); conditions: cited from earlier work
Chain of Gαi (P08753 2-354): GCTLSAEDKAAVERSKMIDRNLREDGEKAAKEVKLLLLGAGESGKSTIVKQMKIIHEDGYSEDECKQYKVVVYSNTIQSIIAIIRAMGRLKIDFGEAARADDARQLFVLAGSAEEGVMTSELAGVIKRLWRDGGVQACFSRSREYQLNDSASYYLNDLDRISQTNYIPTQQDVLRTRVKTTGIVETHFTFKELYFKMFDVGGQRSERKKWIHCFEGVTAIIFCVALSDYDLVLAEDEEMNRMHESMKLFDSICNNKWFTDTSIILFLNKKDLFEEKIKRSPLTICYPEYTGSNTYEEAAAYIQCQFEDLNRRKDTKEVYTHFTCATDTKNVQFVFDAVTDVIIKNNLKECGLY

Chain of GINIP (Q9UPV7 2-400): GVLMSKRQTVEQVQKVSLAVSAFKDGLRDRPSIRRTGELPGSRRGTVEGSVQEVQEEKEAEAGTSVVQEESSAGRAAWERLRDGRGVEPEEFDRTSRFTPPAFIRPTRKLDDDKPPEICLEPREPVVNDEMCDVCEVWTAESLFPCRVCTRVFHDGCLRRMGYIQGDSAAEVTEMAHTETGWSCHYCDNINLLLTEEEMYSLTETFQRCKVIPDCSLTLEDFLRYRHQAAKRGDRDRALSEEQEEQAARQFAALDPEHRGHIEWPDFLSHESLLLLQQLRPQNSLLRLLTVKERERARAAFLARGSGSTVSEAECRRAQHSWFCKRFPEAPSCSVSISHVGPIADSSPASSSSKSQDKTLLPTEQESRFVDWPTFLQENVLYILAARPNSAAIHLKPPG

## Nc1ncnc2c1ncn2[C@@H]1O[C@H](CO)[C@@H](O)[C@H]1O [adenosine]
[1]
  BRET response (endogenous Gαi activation) to adenosine: robust and concentration-dependent responses

## CGP54626
GABABR
  reversal of the GABA-induced BRET response by antagonist: rapidly reverted

## Endomorphin-1
DOR
  DOR activity according to the source reference of the IUPHAR annotation: inactive
  agonist efficacy annotation for DOR in the IUPHAR database: full agonist

## Endomorphin-2
DOR
  agonist efficacy annotation for DOR in the IUPHAR database: lack of annotation

## GINIP (from UniProt Q9UPV7)
Gαi
  pKd: 7.19
